Experimental data as given in patent US20240293344A1, “Unsaturated Hydroxamic Acid Derivatives and Their Use for the Treatment and Prevention of an Ammonia-Associated Disease or Disorder” (Versantis AG, priority 2021, published 2024).
Where two headings read alike, the source gives them in different places.

Key:
[1] = Pharmacokinetics in male beagle dogs (plasma); format: in vivo, dog; conditions: for bioavailability: dog
Text: The main objective of the experiment was to quantify the levels of 2-octynoHA in the plasma of male beagle dogs following I.V. administration of a solution of 2-octynoHA with HPβCD (1:1 molar ratio) (PK 1), oral (P.O.) administration of 2-octynoHA formulated in an uncoated gelatin capsule size 0 (PK 2), and oral administration of 2-octynoHA formulated in a coated (Eudragit S100 15% w/w, triethyl citrate 5% w/w, isopropyl alcohol 40% w/w, ethanol 40% w/w) gelatin capsule size 0 for colonic delivery (PK 3) (Table Ill). For each of the studies, three animals were administered with a single dose of the corresponding treatment. Plasma samples were collected at pre-determined time points (Table Ill).
In PK 1, the plasma samples were extracted by protein precipitation prior to analysis. In brief, 40 μL plasma was precipitated with 2 volumes (80 μL) of an organic solvent solution consisting of acetonitrile:methanol (80:20 v/v) containing 1% formic acid. Samples were vortex-mixed and centrifuged at 13,000 rpm. 100 μL of supernatant were further diluted with 100 μL water containing 0.1% formic acid (final dilution factor of 6×). The sample extracts were transferred into a 96-well plate. Four μL plasma extract were injected for chromatographic separation and high resolution/accurate mass analysis. Separation was performed on a 5 cm C18 UPLC column, detection and quantification were performed on a quadrupole time-of-flight (QTof) mass spectrometer in the positive ion mode.
In both PK 2 and PK 3, prior to extraction, plasma samples (ca. 700 μL) were acidified by adding 15 μL of 50% phosphoric acid in water. Then, plasma samples (40 μL) were extracted by protein precipitation by adding 2 volumes (80 μL) of an organic solvent solution consisting of acetonitrile:methanol (80:20 v/v) containing 0.2% formic acid.
Samples were vortex-mixed and centrifuged at 13,000 rpm for 5 min. 100 μL of supernatant were further diluted with 100 μL water containing 0.1% formic acid (final dilution factor of 6×). The sample extracts were transferred into a 96-well plate. Five μL were injected for chromatographic separation and further mass analysis. The chromatographic separation was performed on a 10 cm C18 UPLC column and the MS detection and quantification was performed on a quadrupole time-of-flight (QTof) mass spectrometer in the positive ion mode.
Concentrations of 2-octynoHA was quantified based on the calibration curve. In the PK 1, 2-octynoHA was detected at the m/z 156.1 with the retention time (RT) of 4.12 min. […] Concentration values below the lower limit of quantitation (LLOQ) (i.e., lowest amount of an analyte in a sample that can be quantitatively determined with suitable precision and accuracy) were considered equal to zero.

[2] = system: S. typhimurium strains (TA98, TA100, TA1535, TA1537); experiment: Ames test (Ames MPF Penta 1), S. typhimurium strains
Text: A commercial microplate format test kit (Ames MPF™ Penta 1, Xenometrix, Switzerland) was used for this experiment. The most commonly used strains in the Ames tests, S. typhimurium with point mutations in the histidine operon and E. coli with mutations in the tryptophan operon were utilized as the model systems. The mutagenicity of the three hydroxamic acids was investigated in four S. typhimurium strains (TA98, TA100, TA1535, TA1537) and in the mixture of two E. coli strains (wp2 [pKM101] and wp2 uvrA) with and without metabolic activation (S9 fraction) according to the manufacturer's protocol.
Bacteria were exposed to 6 concentrations of the test compounds, solvent control (DMSO) and positive control substances (concentrations listed in Tables I-II below) for 90 min in the medium containing enough histidine for S. typhimurium or tryptophan for E. coli to support cell growth. After that, the cultures media were diluted with pH indicator solution lacking histidine or tryptophan and aliquoted into 48 wells of a 384-well plate. Within 48 hours, media containing cells that reverted to amino acid prototrophy turned yellow as bacteria metabolism reduced the pH of the media. The number of yellow wells containing revertant colonies was counted for each dose of the test compounds and compared to the solvent control.

[3] = system: bile-duct ligated (BDL) rat model of hepatic encephalopathy; experiment: In vivo efficacy in bile-duct ligated (BDL) rats, blood ammonia; conditions: 30 mg/kg twice a day by gavage in HPβCD solution, dropped from 53±30.31 μmol/L before treatment, n=4
Procedure: Efficacy of 2-octynoHA was evaluated in the bile-duct ligated (BDL) rat model, which is recommended by the International Society for Hepatic Encephalopathy and Nitrogen Metabolism (ISHEN) as an animal model of hepatic encephalopathy (HE) associated with chronic liver cirrhosis. This model is obtained by obstruction of the common bile duct that causes impairment of liver function and thereby development of hyperammonemia and low-grade HE.
In this study, on the DO blood ammonia levels were measured (n=4, 27.25±6.18 μmol/L) using PocketChem™ (Arkray, Japan) after which all rats were subjected to the BDL surgery. Right before surgery all animals were given injection of slow-release buprenorphine (lasting 72 h) between the shoulder blades. Then, animals were anesthetized with isoflurane in O2. Depth of anesthesia was checked by toe-pinching. Further, a midline incision was made (2 cm), and then the common bile duct was isolated of surrounding tissue, tightly ligated twice with silk suture and cut between the 2 ligations. Abdominal incision was closed with Vicryl™ 4-0 for muscle layers; skin was closed with staples and one drop of Vetbond™ tissue glue was applied to secure closing. Animals were then placed on heating pad for recovery. For the first 4 weeks post-surgery, animals were monitored for pain level, extent of jaundice, body weight (BW) and disease scores. […]

[4] = system: Caco-2 cells; experiment: Cytotoxicity in Caco-2 cells (CCK-8); conditions: 24 h; for Caco-2 cell viability (percentage of the medium control): 10 mM
Procedure: (§1) The compounds used were 2-octynoHA, OHA (Tokyo Chemical Industry Co., Ltd.; Japan) and AHA (Sigma-Aldrich, St. Louis, MO) The human colorectal adenocarcinoma cell line Caco-2 was obtained from American Type Culture Collection. The cells were cultured in complete medium containing DMEM (Dulbecco's modified Eagle's medium) high glucose, GlutaMax™, pyruvate (Thermo Fisher Scientific, Waltham, MA) supplemented with 10% fetal bovine serum (Thermo Fisher Scientific, Waltham, MA), 1% penicillin-streptomycin (Thermo Fisher Scientific, Waltham, MA) and 15 mM HEPES (Thermo Fisher Scientific, Waltham, MA). The cells were incubated at 37° C. in a humidified atmosphere with 5% CO2. Caco-2 cells were used in the experiments from passage 50 to 60 and were tested negative for mycoplasma.
(§2) The cytotoxicity of HAs was assessed using Cell Counting Kit-8 (CCK-8, Sigma-Aldrich, St. Louis, MO), a colorimetric assay based on tetrazolium salt WST-8 which is reduced by dehydrogenases in cells to an orange-colored formazan. The absorbance of formazan at 450 nm is directly proportional to the number of living cells.
(§3) In order to test cytotoxicity of HAs, Caco-2 cells were seeded in a 96-well plate at a density of 5×10^3 cell/well and grown for 1 day. Then, cells were treated with an increasing range of inhibitors' concentrations and incubated for another 24 h at 37° C., 5% CO2. […] After incubation, cells were washed with phosphate buffered saline (Thermo Fisher Scientific, Waltham, MA), treated with DMEM without phenol red (Thermo Fisher Scientific, Waltham, MA) containing CCK-8 reagent and incubated for another 2 h at 37° C. in a humidified atmosphere with 5% CO2. The absorbance of medium at 450 nm was measured using Tecan Infinite M200 PRO plate reader. Caco-2 cell viability was calculated as a percentage of the medium control.

[5] = system: N-Nitrosodiethylamine induced liver disease in rats; experiment: In vivo efficacy in N-nitrosodiethylamine (DEN) induced liver disease in rats, blood ammonia; design: species or system rat; conditions: gavage twice a day from day 3, n=10
Procedure: Efficacy of 2-octynoHA was assessed in male Sprague Dawley rats (Beijing Vital River Laboratory Animal Technology Co., Ltd, China) in a model of acute liver disease. The liver damage was induced by reoccurring intraperitoneal injections of N-nitrosodiethylamine (DEN) 60 mg/kg on days 1, 3, 5, and 7.
Four groups of rats were included. The first control group was treated with a solution of HPβCD 270 mg/kg (n=10). The second group was treated with a suspension of rifaximin 30 mg/kg (n=10). The third group was treated with a suspension of rifaximin 60 mg/kg (n=10). The fourth group was treated with 15 mg/kg of 2-octynoHA dissolved in HPβCD solution (1:1 molar ratio of 2-octynoHA to HPβCD) (n=10). All groups received the treatment via gavage twice a day from day 3 to day 8. Blood samples were collected sublingually on days 0, 6 and 8. Blood ammonia level was measured in collected samples using PocketChem™ (Arkray, Japan).

[6] = system: bacterial urease; experiment: Rat caecum content assay (urease inhibitory activity, ammonia production from urea); format: cell-based, bacteria of rat caecum content
Procedure: To evaluate the inhibitory activity of HAs, the inventors first established an in vitro assay using rat caecum content.
The use of caecum content samples for the initial screening of urease inhibitors allowed to rapidly identify stable and membrane permeable inhibitors that cover a broad spectrum of bacterial ureases present in the gastrointestinal tract.
According to the herein established protocol, rat caecum content provided by the ETH Phenomics center was diluted in 200 mM potassium phosphate monobasic buffer pH 6.8 and centrifuged at 100×g to remove large particles. The supernatant with dispersed bacteria was collected, mixed with urea and then incubated with an increasing range of inhibitor concentrations for 30 min at 37° C. with constant shaking. In this setup initial concentrations of bacteria and urea were adjusted to the values that lead to the production of ammonia at a final concentration of approximately 1000 μM. Bacterial urease converts urea to ammonia, which was quantified by an enzymatic assay (Ammonia assay, Randox Laboratories, UK).
The established assay was then used to evaluate the potency of commercially available HAs as well as synthesized HAs of the present disclosure. As most of the tested HAs have low aqueous solubility, cyclodextrins were used to prepare water-soluble formulations of the compounds. In this study, a stock solution of acetohydroxamic acid (AHA) was prepared in DMSO, and stock solutions of octanohydroxamic acid (OHA) and 2-octynohydroxamic acid (2-octynoHA) were prepared by dissolving them in aqueous solutions of 2-hydroxypropyl-p-cyclodextrin (HPβCD) in 1:2 and 1:4 molar ratios, respectively. The obtained mixtures were sonicated and heated at 37° C. until fully dissolved.
Besides 2-octynoHA, the urease inhibitory activity of other unsaturated alkylated HAs consisting of 8 carbons was assessed. These included 2-octenohydroxamic acid (2-octenoHA), 3-octenohydroxamic acid (3-octenoHA), 3-octynohydroxamic acid (3-octynoHA) and 7-octynohydroxamic acid (7-octynoHA). Prior to assessing potency in the rat caecum content assay, stock solutions of 2-octenoHA and 3-octenoHA were prepared using HPβCD solution (1:4 molar ratio of HA to HPβCD), stock solutions of 3-octynoHA and 7-octynoHA were prepared using mixture of 10% DMSO and HPβCD solution. The 7-octynoHA presented a lower potency than unsaturated alkylated HAs having a double/triple bond at positions 2 or 3.

[7] = Stability of 2-octynoHA in solution (UHPLC-UV); format: physicochemical
Procedure: Preliminary stability of 2-octynoHA was assessed in HBSS pH 7.4 supplemented with HEPES 15 mM and compared to stability of the molecule in ultra-pure water.
Both solutions of 2-octynoHA were prepared to a final concentration of 0.5 mg/mL. 2-octynoHA was incubated for ca. 20 min at 37° C. until fully dissolved in the corresponding media. Once solutions were prepared, they were subjected to UHPLC-UV analysis within ca. 1 h while being kept at room temperature. For chromatographic separation and spectrophotometric analysis, 2 μL of each solution were injected. The chromatographic separation was performed on a 10 cm Polar C18 UHPLC column with a mobile phase composed of water, acetonitrile and formic acid 0.1%.
Detection was performed on a diode array detector by monitoring UV absorbance at 200 nm. 2-octynoHA was detected at 200 nm with RT=5.36 min in both solutions.
In order to identify the product of degradation, a solution of 2-octynoHA 10 mM was prepared in phosphate buffer (KH2PO4 200 mM pH 6.8) and left to incubate overnight at 37° C. […] The product of degradation was then extracted with chloroform, the organic phase was collected, dried over Na2SO4 and filtered. The solvent was evaporated, the obtained substance was dissolved in deuterated dimethyl sulfoxide (DMSO-d6) for ^1H NMR analysis.

[8] = system: mixture of E. coli strains (wp2 [pKM101] and wp2 uvrA); experiment: Ames test (Ames MPF Penta 1), E. coli strain mixture; format: cell-based; conditions: with or without metabolic activation (S9)
Text: A commercial microplate format test kit (Ames MPF™ Penta 1, Xenometrix, Switzerland) was used for this experiment. […] The mutagenicity of the three hydroxamic acids was investigated in four S. typhimurium strains (TA98, TA100, TA1535, TA1537) and in the mixture of two E. coli strains (wp2 [pKM101] and wp2 uvrA) with and without metabolic activation (S9 fraction) according to the manufacturer's protocol.

[9] = system: Caco-2 cells; conditions: human, 24 h
Procedure: as §1, §2, §3

[10] = TA98, TA100, TA1535, TA1537, with or without metabolic activation (S9)
[11] = rat caecum content with urea, 30 min at 37° C., pH 6.8; read-out: IC50, bacterial urease inhibitory activity

CCCCCC#CC(=O)NO [2-octynoHA, N-hydroxyoct-2-ynamide]
plasma concentration ([1]; PK 3: P.O., 300 mg per dog, coated (Eudragit S100) gelatin capsule for colonic delivery): below LLOQ
bioavailability ([1]; male, beagle, plasma, po, 300 mg, uncoated gelatin capsule, dose-adjusted AUC0-t of PK 1 and PK 2, read-out: bioavailability after oral administration): ~4.5%
bioavailability ([1]; male, beagle, plasma, po, delivery via a colonic capsule, read-out: oral bioavailability): ~0%
Tmax ([1]; male, beagle, plasma, po, PK 2: P.O., 300 mg per dog, uncoated gelatin capsule): 30 min
AUC(0-t) ([1]; male, beagle, plasma, po, PK 2: P.O., 300 mg per dog, uncoated gelatin capsule, read-out: AUC0-t (t=12 h)): ~0.213 µg·h/mL
AUC(0-t) ([1]; plasma, iv, PK 1: I.V., 100 mg per dog, solution with HPβCD (1:1), male beagle dogs, read-out: AUC0-t (t=4 h)): ~1.78 µg·h/mL
mutagenicity (reverse mutations) [2, 10]: not mutagenic up to 1 mM
mean blood ammonia level three days after initiating treatment [3]: 11 ± 5.68 µmol/L
Caco-2 cell viability (percentage of the medium control) [4]: ca. 6%
concentration up to which no cytotoxicity was detected ([4]; Caco-2 cells): up to 1 mM
blood ammonia level on day 6 ([5]; 15 mg/kg in HPβCD solution): 20 ± 9.6 µM
IC50 ([6]; read-out: IC50, bacterial urease inhibitory activity; rat caecum content with urea, 30 min at 37° C., pH 6.8): ~38 µM
degradation in solution (UHPLC-UV) ([7]; 0.5 mg/mL in HBSS pH 7.4 with HEPES 15 mM, ca. 20 min at 37° C., analysed within ca. 1 h at room temperature): degraded
degradation in solution (UHPLC-UV) ([7]; 0.5 mg/mL in ultra-pure water, ca. 20 min at 37° C., analysed within ca. 1 h at room temperature): No degradation
degradation in solution (UHPLC-UV) ([7]; 10 mM in KH2PO4 200 mM pH 6.8, overnight at 37° C.): Complete degradation
mutagenicity (reverse mutations) [8]: not mutagenic up to 1 mM

C#CCCCCCC(=O)NO [7-octynoHA, 7-octynohydroxamic acid]
potency compared with unsaturated alkylated HAs having a double/triple bond at positions 2 or 3 ([6]; rat caecum content assay, FIG. 6): lower potency

CC(=O)NO [AHA, N-hydroxyacetamide]
concentration up to which no cytotoxicity was detected [9]: up to 10 mM
mutagenicity (reverse mutations) ([2]; TA98, TA100 and TA1537 strains at 5 and 10 mM): mutagenic potential was detected
IC50 [6, 11]: 7300 µM

CCCCCCCC(=O)NO [OHA, N-hydroxyoctanamide, reference compound]
mutagenicity (reverse mutations) [2, 10]: not mutagenic
Caco-2 cell viability (percentage of the medium control) [4]: no live cells were observed
IC50 [6, 11]: 230 µM
mutagenicity (reverse mutations) [8]: not mutagenic

OO [hydrogen peroxide, reference compound]
Caco-2 cell viability (percentage of the medium control) [4]: 1.79±6%

CO[C@H]1/C=C/O[C@@]2(C)Oc3c(C)c(O)c4c(O)c(c5c(nc6cc(C)ccn65)c4c3C2=O)NC(=O)/C(C)=C\C=C\[C@H](C)[C@H](O)[C@@H](C)[C@@H](O)[C@@H](C)[C@H](OC(C)=O)[C@@H]1C [rifaximin, reference compound]
blood ammonia level on day 6 ([5]; 30 mg/kg suspension): 44 ± 22.4 µM
